This is an account of results in US9732087B2, “Diamino-pyridine, pyrimidine, and pyridazine modulators of the histamine H4 receptor” (JANSSEN PHARMACEUTICA NV, priority 2008, dated 2017).

Structures can show the parent of a compound that is named as a salt. Where only a bound is given, the exact number is not on record here.

Sequence of human H4 receptor (Q9H3N8 whole entry): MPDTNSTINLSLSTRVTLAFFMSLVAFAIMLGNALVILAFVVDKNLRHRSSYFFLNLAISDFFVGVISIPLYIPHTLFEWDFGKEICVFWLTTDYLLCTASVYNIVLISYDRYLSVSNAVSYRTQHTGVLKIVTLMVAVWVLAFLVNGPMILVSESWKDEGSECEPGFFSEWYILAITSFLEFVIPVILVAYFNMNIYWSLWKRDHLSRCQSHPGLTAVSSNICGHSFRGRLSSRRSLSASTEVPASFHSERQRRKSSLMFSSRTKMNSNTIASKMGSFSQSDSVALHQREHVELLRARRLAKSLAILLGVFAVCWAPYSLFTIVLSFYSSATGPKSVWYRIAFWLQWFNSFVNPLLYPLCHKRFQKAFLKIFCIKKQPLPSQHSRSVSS

The target in the first assay is human H4 receptor (Homo sapiens (Human), UniProt Q9H3N8). Description: Binding assay on recombinant human histamine H4 receptor ([3H]histamine competition, SK-N-MC cell membranes). The note with it: membranes harvested with 96 well Brandel system; [3H]histamine 10 nM; average of results; read-out: Brandel Ki. An outline of the steps:
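Membranes from SK-N-MC cells stably or transiently transfected with human H4 receptor, prepared by homogenization and 30,000 g centrifugation in Tris/EDTA. Bound [3H]histamine separated by rapid filtration on PEI-treated GF/C filters, washed with ice-cold Tris/EDTA, counted by scintillation. '>' values denote highest concentration tested.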
Take `CC(C)CNc1cc(N2CCN(C)CC2)ccn1` [Example 21, 4-(4-Methylpiperazin-1-yl)-N-(2-methylpropyl)pyridin-2-amine]: the Ki came out at 51.4 nM. Same read-out and setting: the same measure for `CC(C)CNc1nccc(N2CCNCC2)n1` [Example 65, Isobutyl-(4-piperazin-1-yl-pyrimidin-2-yl)-amine]: 46.3 nM; for `CC(C)Nc1nccc(N2CCN(C)CC2)n1` [Example 53, N-(1-Methylethyl)-4-(4-methylpiperazin-1-yl)pyrimidin-2-amine]: 24.3 nM. On to `CC(C)Nc1nccc(N2CC(N)C2)n1` [Example 90, 4-(3-Aminoazetidin-1-yl)-N-(1-methylethyl)pyrimidin-2-amine], for which the Ki worked out at 68.9 nM. Consider `CC(C)CNc1cc(N2CCNCC2)ccn1` [Example 19, N-(2-Methylpropyl)-4-piperazin-1-ylpyridin-2-amine dihydrochloride], for which the inhibitory constant (Ki) was 45.3 nM.

Staying with this assay, now noted: membranes harvested with cell harvester; [3H]histamine 10 nM; average of results; read-out: Cell Harvester Ki.
With `CNC1CN(c2cnnc(NCC3CC3)c2)C1` [Example 327, N-(Cyclopropylmethyl)-5-[3-(methylamino)azetidin-1-yl]pyridazin-3-amine], the Ki turned out to be 95.3 nM.

With `NC1CN(c2cnnc(NC3CC3)c2)C1` [Example 333, 5-(3-Aminoazetidin-1-yl)-N-cyclopropylpyridazin-3-amine], the Ki was above 10000 nM. On the same count and under the same terms, next, `CNC1CN(c2ccnc(NCC3CCCCC3)n2)C1` [Example 102, N-(Cyclohexylmethyl)-4-[3-(methylamino)azetidin-1-yl]pyrimidin-2-amine]: 45.9 nM; `COCCNc1nccc(N2CCNCC2)n1` [Example 72, N-(2-Methoxyethyl)-4-piperazin-1-ylpyrimidin-2-amine]: 376 nM; `CN1CCN(c2ccnc(NCCc3ccccc3)n2)CC1` [Example 173, 4-(4-Methylpiperazin-1-yl)-N-(2-phenylethyl)pyrimidin-2-amine]: 745 nM. On the same count and under the same terms, the same measure for `CN[C@@H]1CCN(c2cnnc(NCCOC)c2)C1` [Example 393, N-(2-Methoxyethyl)-5-[(3R)-3-(methylamino)pyrrolidin-1-yl]pyridazin-3-amine]: 1810 nM. `C[C@@H](Nc1cc(N2CCN(C)CC2)ccn1)C1CCCCC1` [Example 214, N-[(1R)-1-Cyclohexylethyl]-4-(4-methylpiperazin-1-yl)pyridin-2-amine]: the Ki came to 416 nM. With `C[C@@H](Nc1nccc(N2C[C@H]3CCN[C@H]3C2)n1)c1ccccc1` [Example 141, 4-[(3aR,6aR)-Hexahydropyrrolo[3,4-b]pyrrol-5(1H)-yl]-N-[(1R)-1-phenylethyl]pyrimidin-2-amine], the Ki was determined as 2320 nM. Same read-out and setting: the same measure for `CN1CCN(c2cnnc(NCc3ccccc3)c2)CC1` [Example 410, N-Benzyl-5-(4-methylpiperazin-1-yl)pyridazin-3-amine]: above 10000 nM; for `N[C@@H]1CCN(c2ccnc(NC3CCCC3)n2)C1` [Example 25, 4-[(3R)-3-Aminopyrrolidin-1-yl]-N-cyclopentylpyrimidin-2-amine]: 3.8 nM; for `CC(C)CNc1nccc(N2CC[C@H](N)C2)n1` [Example 198, 4-[(3S)-3-Aminopyrrolidin-1-yl]-N-(2-methylpropyl)pyrimidin-2-amine]: 55 nM. Same read-out and setting: next, `CN1CCN(c2ccnc(NC34C[C@H]5C[C@@H](C3)C[C@@H](C4)C5)c2)CC1` [Example 219, Adamantan-1-yl-[4-(4-methyl-piperazin-1-yl)-pyridin-2-yl]-amine]: 188 nM; `COc1ccc(CNc2cc(N3CCNCC3)cnn2)cc1` [Example 347, N-(4-Methoxybenzyl)-5-piperazin-1-ylpyridazin-3-amine]: above 10000 nM; `COCCNc1nccc(N2CC[C@@H](N)C2)n1` [Example 59, 4-[(3R)-3-Aminopyrrolidin-1-yl]-N-(2-methoxyethyl)pyrimidin-2-amine]: 190 nM. The same measure, in the same setting: next, `CN1CCN(c2ccnc(NC3CCC3)n2)CC1` [Example 54, N-Cyclobutyl-4-(4-methylpiperazin-1-yl)pyrimidin-2-amine]: 87.9 nM. As for `N[C@@H]1CCN(c2ccnc(N[C@@H]3CCOC3)n2)C1` [Example 29, 4-[(3R)-3-Aminopyrrolidin-1-yl]-N-[(3R)-tetrahydrofuran-3-yl]pyrimidine-2-amine], the Ki turned out to be 58.5 nM. On the same count and under the same terms, the same measure for `CN[C@@H]1CCN(c2ccnc(NCC(C)(C)O)c2)C1` [Example 240, 2-Methyl-1-({4-[(3R)-3-(methylamino)pyrrolidin-1-yl]pyridin-2-yl}amino)propan-2-ol]: 54.3 nM; for `CC(C)CNc1nccc(N2CCNCC2)n1` [Example 65, Isobutyl-(4-piperazin-1-yl-pyrimidin-2-yl)-amine]: 68.6 nM; for `N[C@H]1CCN(c2ccnc(NC3CCCCC3)n2)C1` [Example 129, 4-[(3S)-3-Aminopyrrolidin-1-yl]-N-cyclohexylpyrimidin-2-amine]: 141 nM. The same measure, in the same setting: next, `CN1CCN(c2ccnc(NCC3CCCCC3)c2)CC1` [Example 212, N-(Cyclohexylmethyl)-4-(4-methylpiperazin-1-yl)pyridin-2-amine]: 275 nM. With `CNC1CN(c2ccnc(NC3CCOCC3)n2)C1` [Example 108, 4-[3-(Methylamino)azetidin-1-yl]-N-(tetrahydro-2H-pyran-4-yl)pyrimidin-2-amine], the Ki was found to be 141 nM. For `CC(C)Nc1nccc(N2CCN(C)CC2)n1` [Example 53, N-(1-Methylethyl)-4-(4-methylpiperazin-1-yl)pyrimidin-2-amine], the Ki is 85.7 nM.

Consider `CN[C@H]1CCN(c2cnnc(NCC(C)(C)C)c2)C1` [Example 385, N-(2,2-Dimethylpropyl)-5-[(3S)-3-(methylamino)pyrrolidin-1-yl]pyridazin-3-amine], for which the Ki was determined as 259 nM.

Regarding `N[C@H]1CCN(c2ccnc(NCc3ccccn3)c2)C1` [Example 258, 4-[(3S)-3-Aminopyrrolidin-1-yl]-N-(pyridin-2-ylmethyl)pyridin-2-amine], the Ki was above 10000 nM.

In the case of `C[C@@H](Nc1cc(N2CCNCC2)cnn1)c1ccccc1` [Example 349, N-[(1R)-1-Phenylethyl]-5-piperazin-1-ylpyridazin-3-amine], the Ki was above 10000 nM.

Turning to `c1cc(N2CCNCC2)cc(NC2CCCC2)n1` [Example 16, N-Cyclopentyl-4-piperazin-1-ylpyridin-2-amine], the Ki was found to be 48.2 nM. Still for that read-out and setting: next, `NC1CN(c2ccnc(NCC3CC3)n2)C1` [Example 86, 4-(3-Aminoazetidin-1-yl)-N-(cyclopropylmethyl)pyrimidin-2-amine]: 33.7 nM; `CN1CCN(c2cnnc(NCC(C)(C)C)c2)CC1` [Example 404, 5-(4-methylpiperazin-1-yl)-N-neopentylpyridazin-3-amine dihydro chloride]: 4300 nM.

Regarding `CN[C@H]1CCN(c2ccnc(NCc3ccccc3)c2)C1` [Example 237, N-Benzyl-4-[(3S)-3-(methylamino)pyrrolidin-1-yl]pyridin-2-amine], the Ki is 585 nM. Same read-out and setting: the same measure for `CCCCNc1cc(N2CC[C@@H](N)C2)ccn1` [Example 254, 4-[(3R)-3-Aminopyrrolidin-1-yl]-N-butylpyridin-2-amine]: 27.5 nM; for `Fc1ccc(CNc2nccc(N3C[C@H]4CCN[C@H]4C3)n2)cc1` [Example 142, N-(4-Fluorobenzyl)-4-[(3aR,6aR)-hexahydropyrrolo[3,4-b]pyrrol-5(1H)-yl]pyrimidin-2-amine]: 7090 nM. The same measure, in the same setting: the same measure for `CC(C)Nc1nccc(N2CC(N)C2)n1` [Example 90, 4-(3-Aminoazetidin-1-yl)-N-(1-methylethyl)pyrimidin-2-amine]: 106 nM; for `CN1CCN(c2cnnc(NCCc3ccccc3)c2)CC1` [Example 409, 5-(4-Methylpiperazin-1-yl)-N-(2-phenylethyl)pyridazin-3-amine]: above 10000 nM; for `CN[C@@H]1CCN(c2cnnc(NCC3CCC4CC3C4(C)C)c2)C1` (stereo partly drawn) [Example 388, N-[(6,6-Dimethylbicyclo[3.1.1]hept-2-yl)methyl]-5-[(3R)-3-(methylamino)pyrrolidin-1-yl]pyridazin-3-amine]: 293 nM.

In the case of `N[C@H]1CCN(c2ccnc(NCc3ccc(F)cc3)c2)C1` [Example 263], the Ki amounted to 3090 nM. Same read-out and setting: next, `CNC1CN(c2ccnc(NCC(C)(C)O)c2)C1` [Example 282, 2-Methyl-1-({4-[3-(methylamino)azetidin-1-yl]pyridin-2-yl}amino)propan-2-ol]: 173 nM. For the molecule `CN[C@@H]1CCN(c2ccnc(NCC3CCCCC3)n2)C1` [Example 191, N-(Cyclohexylmethyl)-4-[(3R)-3-(methylamino)pyrrolidin-1-yl]pyrimidin-2-amine], the Ki is 3.58 nM. As for `N[C@@H]1CCN(c2ccnc(NC3CCCCC3)n2)C1` [Example 181, 4-[(3R)-3-Aminopyrrolidin-1-yl]-N-cyclohexylpyrimidin-2-amine], the Ki came out at 9.07 nM. On the same count and under the same terms, next, `CC(C)(C)CNc1cc(N2C[C@H]3CCN[C@H]3C2)ccn1` [Example 293, N-(2,2-Dimethylpropyl)-4-[(3aR,6aR)-hexahydropyrrolo[3,4-b]pyrrol-5(1H)-yl]pyridin-2-amine]: 60.9 nM. Same read-out and setting: the same measure for `CC(C)Nc1nccc(N2CCNCC2)n1` [Example 67, Isopropyl-(4-piperazin-1-yl-pyrimidin-2-yl)amine]: 275 nM; for `CNC1CN(c2ccnc(NCc3ccccc3)c2)C1` [Example 285, N-Benzyl-4-[3-(methylamino)azetidin-1-yl]pyridin-2-amine]: 141 nM. Take `CN1CCN(c2ccnc(NCc3ccc(F)cc3)n2)CC1` [Example 58, N-(4-Fluorobenzyl)-4-(4-methylpiperazin-1-yl)pyrimidin-2-amine]: the Ki was 342 nM. With `c1cc(N2C[C@H]3CCN[C@H]3C2)cc(NCC2CCCCC2)n1` [Example 256], the Ki is 617 nM. The same measure, in the same setting: the same measure for `CN[C@H]1CCN(c2ccnc(NCC(C)(C)CO)n2)C1` [Example 158, 2,2-Dimethyl-3-({4-[(3S)-3-(methylamino)pyrrolidin-1-yl]pyrimidin-2-yl}amino)propan-1-ol]: 3490 nM. Regarding `CN[C@H]1CCN(c2ccnc(NCC3CCCCC3)c2)C1` [Example 225, N-(Cyclohexylmethyl)-4-[(3S)-3-(methylamino)pyrrolidin-1-yl]pyridin-2-amine], the Ki was 75.1 nM.

For orientation: Ki means a measure of affinity in units of concentration, obtained from inhibition or displacement.
